We go through 24 molecules from ChEMBL document CHEMBL1201862, “PubChem BioAssay data set” (2004).

SMILES strings stand for the structures. Calls of active or inactive are those of the source. Where only a bound is given, the exact number is not on record here.

The target of assay [1] is T1, Microphthalmia-associated transcription factor (Homo sapiens, UniProt O75030).
T1 sequence (O75030 whole entry): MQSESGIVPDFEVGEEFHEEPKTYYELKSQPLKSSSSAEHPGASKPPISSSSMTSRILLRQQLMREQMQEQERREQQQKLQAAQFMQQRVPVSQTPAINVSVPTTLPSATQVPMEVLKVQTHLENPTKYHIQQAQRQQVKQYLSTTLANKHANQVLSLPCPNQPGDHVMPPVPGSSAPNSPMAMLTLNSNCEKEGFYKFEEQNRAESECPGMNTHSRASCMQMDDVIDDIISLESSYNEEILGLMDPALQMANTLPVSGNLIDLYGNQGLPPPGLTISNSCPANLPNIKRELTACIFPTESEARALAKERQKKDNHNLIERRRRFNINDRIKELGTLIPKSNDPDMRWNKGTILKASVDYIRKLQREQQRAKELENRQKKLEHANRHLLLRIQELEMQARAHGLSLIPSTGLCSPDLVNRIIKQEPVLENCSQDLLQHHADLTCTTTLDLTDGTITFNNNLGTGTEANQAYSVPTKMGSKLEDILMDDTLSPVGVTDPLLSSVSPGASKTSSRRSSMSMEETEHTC
The assay can be described thus: reducers of TRPM1 reporter luminescence, concentration series – cell-based, SK-MEL-5, cherry-picked, set 3, MITF inhibitor project, dose response (AID 493073).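 Further: SK-MEL-5 melanoma cells with luciferase driven by the MITF target TRPM1 promoter.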 It is filed as functional.

Assay [2] addresses T2, Rac GTPase-activating protein 1 (Homo sapiens, UniProt Q9H0H5).
T2 sequence (Q9H0H5 whole entry): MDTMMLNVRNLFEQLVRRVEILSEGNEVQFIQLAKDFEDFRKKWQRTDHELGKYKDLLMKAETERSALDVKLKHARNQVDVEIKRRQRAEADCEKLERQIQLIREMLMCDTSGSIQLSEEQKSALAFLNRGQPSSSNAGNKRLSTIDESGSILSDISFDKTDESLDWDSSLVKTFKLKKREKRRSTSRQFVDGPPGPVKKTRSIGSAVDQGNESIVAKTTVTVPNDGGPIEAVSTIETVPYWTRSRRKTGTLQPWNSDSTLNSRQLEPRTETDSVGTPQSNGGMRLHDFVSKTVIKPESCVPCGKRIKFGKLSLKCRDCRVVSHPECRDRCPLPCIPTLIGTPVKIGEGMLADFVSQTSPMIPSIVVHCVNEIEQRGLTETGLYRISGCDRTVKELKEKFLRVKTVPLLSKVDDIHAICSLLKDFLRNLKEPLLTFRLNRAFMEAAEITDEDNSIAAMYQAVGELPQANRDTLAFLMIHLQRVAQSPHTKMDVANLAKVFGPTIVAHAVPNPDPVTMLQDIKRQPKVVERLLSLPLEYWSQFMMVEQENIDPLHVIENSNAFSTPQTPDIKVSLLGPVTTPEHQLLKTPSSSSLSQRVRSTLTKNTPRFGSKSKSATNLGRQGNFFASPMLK
The assay can be described thus: blockers of MgcRacGAP-driven Rac1 GTP hydrolysis – biochemical, ADP Hunter fluorescence, primary and confirmatory, confirmation (AID 624330). It counts as functional.

Assay [3] concerns the target Heat shock protein HSP 90-alpha (Homo sapiens, UniProt P07900). It is filed as functional, organism-based.
Assay [4] is described as follows: Luminescence Cell-Based Dose Confirmation HTS to Identify Activators of 5'UTR Stem-Loop Driven Alpha-Synuclein mRNA Translation in H4 Neuroglioblastoma Cells. [Related pubchem assays: 1829 (Project Summary), 1814 (Primary HTS)]. It is filed as functional.
Assay [5] is described as follows: Luminescence Cell-Based Dose Response HTS to Identify Activators of Luciferase Translation or Activity in H4 […] Cells. [Related pubchem assays: 1829 (Project Summary), 1814 (Primary HTS)]. It is filed as functional.
The subject of assay [6] is H4. The assay can be described thus: Luminescence Cell-Based Dose Response HTS to Identify Activators of 5'UTR Stem-Loop Driven Prion Protein mRNA Translation in H4 Neuroglioblastoma Cells. [Related pubchem assays: 1829 (Project Summary), 1814 (Primary HTS)]. It counts as functional. Conditions: Homo sapiens.
The target in assay [7] is T3, High affinity choline transporter 1 (Homo sapiens, UniProt Q9GZV3).
T3 sequence (Q9GZV3 whole entry): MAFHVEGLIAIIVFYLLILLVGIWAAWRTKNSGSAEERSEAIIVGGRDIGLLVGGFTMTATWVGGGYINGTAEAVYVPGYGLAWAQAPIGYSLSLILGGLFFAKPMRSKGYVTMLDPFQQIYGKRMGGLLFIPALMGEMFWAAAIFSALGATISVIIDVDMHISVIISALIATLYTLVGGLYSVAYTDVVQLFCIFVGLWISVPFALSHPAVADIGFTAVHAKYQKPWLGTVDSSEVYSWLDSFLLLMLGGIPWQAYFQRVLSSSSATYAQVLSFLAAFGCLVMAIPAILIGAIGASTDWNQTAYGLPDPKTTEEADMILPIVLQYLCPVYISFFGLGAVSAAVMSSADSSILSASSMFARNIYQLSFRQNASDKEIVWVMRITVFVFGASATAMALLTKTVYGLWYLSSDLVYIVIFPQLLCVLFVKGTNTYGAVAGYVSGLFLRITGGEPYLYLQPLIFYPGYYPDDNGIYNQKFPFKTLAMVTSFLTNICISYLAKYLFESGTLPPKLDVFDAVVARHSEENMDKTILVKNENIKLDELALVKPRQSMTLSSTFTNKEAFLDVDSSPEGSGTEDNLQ
The assay can be described thus: human choline transporter blockers, potency – cell-based, 5-point CRC, membrane potential dye, dose response (AID 504840). It is filed as functional.

Assay [8] is described as follows: luciferase reporter signal suppression in cells – H4 neuroglioma cells, luminescence, dose response (AID 1990). It is filed as functional, cell-based.
The nature of assay [9]: Luminescence Cell-Based Dose Response HTS to Identify Inhibitors of 5'UTR Stem-Loop Driven Prion Protein mRNA Translation in H4 Neuroglioblastoma Cells. [Related pubchem assays: 1827 (Project Summary), 1813 (Primary HTS)]. It is filed as functional.
Assay [10] is described as follows: alpha-synuclein stem-loop luciferase translation blockers – H4 neuroglioma cells, luminescence, confirmation (AID 1988). It is filed as functional, cell-based.
The subject of assay [11] is HEK293. Nature of the assay: EBV LMP1 TES2 canonical NF-kB signalling blockers – cell-based, HEK293, luciferase, cherry-pick, dose response (AID 588343). It is filed as functional. The following applies: Homo sapiens.
The target in assay [12] is T4, Ubiquitin-conjugating enzyme E2 N (Homo sapiens, UniProt P61088).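 Further: Dose-response confirmation in a TR-FRET assay detecting UBC13-driven polyubiquitin chain formation, inhibition measured.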
T4 sequence (P61088 whole entry): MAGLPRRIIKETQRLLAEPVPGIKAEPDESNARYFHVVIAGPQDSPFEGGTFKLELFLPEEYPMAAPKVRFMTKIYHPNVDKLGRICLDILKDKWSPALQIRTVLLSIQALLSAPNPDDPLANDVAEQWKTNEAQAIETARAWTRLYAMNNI
It counts as functional.

Assay [13] relates to Streptococcus sp. 'group A'. The assay can be described thus: Streptococcus pyogenes SK(-)GAS viability under kanamycin – luminescence, BacTiterGlo, confirmation, counter-screen for streptokinase expression inhibitor project, dose response (AID 1900). It counts as functional, organism-based.
For assay [14], the target named is T5, Streptokinase A (Streptococcus pyogenes serotype M1, UniProt P10520).
T5 sequence (P10520 whole entry): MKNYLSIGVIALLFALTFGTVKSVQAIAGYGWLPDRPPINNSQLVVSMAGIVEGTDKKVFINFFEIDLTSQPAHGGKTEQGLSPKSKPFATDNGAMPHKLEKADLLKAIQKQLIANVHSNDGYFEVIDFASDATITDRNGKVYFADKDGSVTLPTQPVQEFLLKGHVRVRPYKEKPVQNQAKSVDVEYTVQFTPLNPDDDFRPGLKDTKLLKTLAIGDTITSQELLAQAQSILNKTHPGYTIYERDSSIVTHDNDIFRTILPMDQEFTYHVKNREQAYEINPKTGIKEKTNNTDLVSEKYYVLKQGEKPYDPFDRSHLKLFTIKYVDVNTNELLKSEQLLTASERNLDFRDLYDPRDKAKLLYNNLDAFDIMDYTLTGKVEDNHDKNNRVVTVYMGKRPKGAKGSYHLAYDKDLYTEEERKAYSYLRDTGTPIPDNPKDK
Nature of the assay: viability-normalized secreted streptokinase activity reduction – plasminogen activation absorbance, OD405, dose response (AID 1914).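 Further: secreted streptokinase activity via plasminogen activation per viability signal from cell pellet.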 It is filed as functional, Streptococcus pyogenes M1 GAS.

Assay [15] is described as follows: Trypanosoma cruzi growth suppression in host cells – NIH3T3 host cells, beta-gal luminescence, confirmation (AID 2044).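 Further: intracellular parasites grown in NIH/3T3 mouse fibroblasts as host cells; luminescent beta-galactosidase reporter signal from transgenic T. cruzi replicating inside host cells; inhibitors lower the luminescence signal.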 It counts as functional, cell-based.
Assay [16] can be described thus: NIH3T3 cell viability loss – ATP luminescence, mouse fibroblasts, counter-screen, dose response (AID 2010).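 Further: cells exposed to compound for about 90 hours before reading.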 It counts as functional, cell-based.
In assay [17] the test system is Streptococcus. Nature of the assay: GAS UMAA2166 growth inhibition – luminescence, BacTiterGlo, counter-screen for streptokinase expression inhibitor project, dose response (AID 1915).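 Further: potency for reduction of bacterial viability or growth.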 It counts as functional, organism-based.
The subject of assay [18] is INS1. Nature of the assay: INS-1E survival protection against cytokine death – cell-based, luminescence, retest, dose response (AID 449756).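 Further: cell death triggered by IL-1 beta plus TNF-alpha plus IFN-gamma mixture; protective hits raise ATP signal compared with cytokine alone wells.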 It counts as functional. Conditions: Rattus norvegicus.
Assay [19] in a line: NIH-3T3 fibroblast cytotoxicity, dose response, cytotoxicity control, cell-based, fluorescence, Alamar Blue, secondary assay (AID 2327).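 Further: NIH-3T3 mouse fibroblasts cultured with fluconazole at 8 µg/mL.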 It counts as functional.
The nature of assay [20]: fluconazole-exposed Candida albicans growth modulators – fluorescence, retest, confirmation (AID 2467). It is filed as functional, cell-based.
The nature of assay [21]: THP-1 cell cytotoxicity, dose response, cytotoxicity control for non-replicating M. tuberculosis project (AID 489025). It is filed as functional.
Assay [22] can be described thus: cells. It counts as functional.
For assay [23], the target named is Cytochrome P450 3A4 (Homo sapiens, UniProt P08684).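 Further: CYP3A4 tested as one member of a cytochrome P450 panel screen.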
Sequence of Cytochrome P450 3A4 (P08684 whole entry): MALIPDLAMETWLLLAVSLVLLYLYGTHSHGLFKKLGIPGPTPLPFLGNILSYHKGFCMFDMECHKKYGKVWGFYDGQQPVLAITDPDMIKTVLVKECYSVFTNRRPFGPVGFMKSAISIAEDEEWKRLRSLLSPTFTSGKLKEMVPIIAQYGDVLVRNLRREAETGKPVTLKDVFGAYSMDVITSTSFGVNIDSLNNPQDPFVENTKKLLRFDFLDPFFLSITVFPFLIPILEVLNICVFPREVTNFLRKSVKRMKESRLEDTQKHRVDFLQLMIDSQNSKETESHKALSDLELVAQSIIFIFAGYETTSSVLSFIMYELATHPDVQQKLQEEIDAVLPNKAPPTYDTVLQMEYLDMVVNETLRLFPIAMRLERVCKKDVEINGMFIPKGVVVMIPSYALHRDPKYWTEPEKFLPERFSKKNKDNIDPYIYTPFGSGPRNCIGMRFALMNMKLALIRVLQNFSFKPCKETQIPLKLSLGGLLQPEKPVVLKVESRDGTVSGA

`O=C(O)c1ccc(C(=O)Nc2ccc(F)cc2)cc1`: the AC50 in assay [1] is 19.8 µM (active).

`COc1ccc(CN2CCN(Cc3ccc(C(F)(F)F)cc3)CC2)cc1`: the IC50 in [2] is 99.6 µM (active).

For the molecule `O=C(NCCCCc1ccccc1)c1ccc(Br)cc1`, in [3], the AC50 is 3.65 µM (active).

As for `COc1ccc2cc(OCC(=O)NNC(=O)Nc3ccc(C(C)=O)cc3)ccc2c1`, the EC50 is 12.4 µM (active) in assay [4], 33.4 µM (active) in [5] and 20.3 µM (active) in [6]. Further, the IC50 in assay [2] is 239 µM (active).

Turning to `COc1cc(CNCc2ccccc2C(F)(F)F)cc(OC)c1`, in [2], the IC50 is 113 µM (active).

Turning to `CCN(CC)c1[nH]cnc2c3ccccc3nc1-2`, in [7], the IC50 was 13.8 µM (active).

In the case of `CN(C)CCn1c(=S)[nH]c2ccccc2c1=O`, the IC50 in assay [7] was 13.2 µM (active).

With `O=C(Nc1ccc(N2CCOCC2)cc1)c1cnsn1`, the figures for the EC50 in assay [8], in [9] and in assay [10] were 3.19 µM (active), 5.28 µM (active) and 1.9 µM (active), respectively. Also, the AC50 in assay [1] was 3.05 µM (active).

Take `COc1cc(/C=C/C(=O)OCC(=O)N(C)Cc2ccccc2)ccc1O`: the IC50 in assay [2] is 35.2 µM (active).

On to `COc1ccc(-c2cc(C(=O)N3CCN(c4ccccc4F)CC3)c3ccccc3n2)c(OC)c1`, for which, in [3], the AC50 is 5.77 µM (active).

Regarding `CC1(c2nnc(Cc3ccccc3)o2)CC(c2ccccc2[N+](=O)[O-])=NO1` (stereo unspecified), the AC50 in assay [3] was 1.59 µM (active).

As for `CCN1CCN(Cc2ccc(NC(=O)c3ccc(C)c(NC(=O)c4cccc(-c5cnnc(O)c5)c4)c3)cc2C(F)(F)F)CC1`, the AC50 in assay [11] is 1.83 µM (active).

Take `CC(C(=O)Nc1ccc(F)c(F)c1)N1CCN(C)CC1` (stereo unspecified): in assay [2], the IC50 is 83.1 µM (active).

Turning to `Cc1c(OCC(=O)C(C)(C)C)ccc2c(-c3ccccc3)cc(=O)oc12`, the AC50 in [3] was 7.83 µM (active).

Take `COc1cc2nc(=S)[nH]c(Nc3ccc(NC(C)=O)cc3)c2cc1OC`: the values for the IC50 in assay [12] and in [2] were > 20 µM (inactive) and 306 µM (active), respectively.

As for `Oc1c(N=NC(S)=Nc2ccccc2F)c2ccccc2n1Cc1ccc(F)cc1`, the EC50 in assay [13] was 2.84 µM (active); in assay [14] it was 607 nM (inconclusive); in assay [15], 1.06 µM (active); in [16] it was 1.62 µM (active); in assay [17] it was 17.8 µM (active). In addition, in [11], the AC50 was 4.02 µM (active).

With `COc1ccc2c(c1)[C@H]1[C@H](CO2)[C@H](c2ccccc2)[C@]2(C)C(=O)Nc3ccc(C)cc3C(=O)N12`, the AC50 in assay [3] is 6.38 µM (active).

`Cc1ccc(CCNc2ccc3ccccc3c2)cn1`: the IC50 in assay [2] is 105 µM (active).

Take `COc1ccccc1-c1sc2ccccc2c1-c1ccc(O)cc1`: the AC50 in assay [3] was 5.22 µM (active).

With `COc1ccc(C(=O)N/N=C/c2sc3ccccc3c2O)cc1`, the EC50 in assay [8] is 12.7 µM (active); in assay [9], 11 µM (active); in assay [10], 10.2 µM (active). The AC50 is 2.68 µM (active) in assay [3] and 1.8 µM (active) in assay [18].

On to `CC1(C(=O)N/N=C/c2ccc([N+](=O)[O-])o2)CC1(Br)Br` (stereo unspecified), for which the EC50 in assay [19] was > 150 µM (inactive); in [20] it was 2.46 µM (active). Further, in assay [1], the AC50 is 10.3 µM (active).

For the molecule `O=C(N/N=C/c1ccc(Br)s1)c1ccccc1[N+](=O)[O-]`, in [21], the CC50 was > 40 µM (active). For the same molecule, the IC50 in [22] is 49.2 µM (active). In addition, the AC50 in assay [23] was 17.8 µM (inconclusive).

`Cc1ccc(-c2cs/c(=N\c3cccnc3)n2CCCn2ccnc2)cc1C`: the EC50 in [15] was 0.118 µM (active); in assay [16], > 60 µM (not active). Further, in assay [11], the AC50 was 6.59 µM (active).

In the case of `O=[N+]([O-])c1cccc(-c2ccc(/C=N/Nc3nc(N4CCCCC4)nc(N4CCCCC4)n3)o2)c1`, the AC50 in assay [11] is 96.7 µM (active).
